From patent US9107942B2, “Methods of diagnosing and treating fibrosis” (University of Rochester, priority 2008, dated 2015)
“Also recorded” adds a separate entry of the source.

Key:
[1] = tested on: YY1 promoter; test: YY1 promoter-luciferase reporter (YY1-LUC) in WI-38 cells; format: cell-based, human; settings: YY1-Luc-transfected WI-38 cells
Experimental: (§1) FIGS. 7A and 7B are immunoblots of human WI-38 cells (FIG. 7A) and mouse MLg2908 cells (FIG. 7B) treated with TGF-β. After serum starvation for 24 hours, cells were treated with 10 ng/ml of TGF-β for the indicated times in serum-free DMEM. Extracts from whole cells were subjected to immunoblot analysis with anti-YY1 or anti-β-actin antibody. FIGS. 7C and 7D are graphs showing the relative fold induction of YY-1 mRNA expression, detected by quantitative PCR, in WI-38 cells (FIG. 7C) and MLg2908 cells (FIG. 7D) treated with TGF-β. FIGS. 7E and 7F are graphs relating to the YY1 promoter activity in YY1-Luc-transfected WI-38 cells (FIG. 7E) and YY1-Luc-transfected MLg2908 cells (FIG. 7F) treated with PBS or TGF-β for 24 hours. The full-length YY1 promoter-luciferase reporter (YY1-LUC) was transfected into the cells by electroporation. Relative light units (RLU) were measured with a luminometer. Fold changes result from the RLU of stimulated cells divided by the RLU of non-stimulated cells. […]
(§2) FIGS. 9A and 9B are immunoblots of human WI-38 cells (FIG. 9A) and mouse MLg2908 cells (FIG. 9B) treated with TNF-α. […] FIGS. 9C and 9D are graphs showing the relative fold induction of YY-1 mRNA expression, detected by quantitative PCR, in WI-38 cells (FIG. 9C) and MLg2908 cells (FIG. 9D) treated with TGF-β. […] Relative light units (RLU) were measured with a luminometer. […]

[2] = tested on: YY1 promoter; test: YY1 promoter-luciferase reporter (YY1-LUC) in MLg2908 cells; format: cell-based, mouse; settings: YY1-Luc-transfected MLg2908 cells
Experimental: as §1, §2

[3] = tested on: YY1 expression; test: YY1 expression in stimulated MLg2908 lung fibroblasts (immunoblot, quantitative PCR); format: cell-based, mouse; settings: MLg2908 cells; for YY1 transcript levels: quantitative PCR; for YY1 expression: serum-free DMEM, 10 ng/ml cytokine or 40 μg/ml silica, immunoblot
Experimental: (§3) FIGS. 7A and 7B are immunoblots of human WI-38 cells (FIG. 7A) and mouse MLg2908 cells (FIG. 7B) treated with TGF-β. After serum starvation for 24 hours, cells were treated with 10 ng/ml of TGF-β for the indicated times in serum-free DMEM. Extracts from whole cells were subjected to immunoblot analysis with anti-YY1 or anti-β-actin antibody. FIGS. 7C and 7D are graphs showing the relative fold induction of YY-1 mRNA expression, detected by quantitative PCR, in WI-38 cells (FIG. 7C) and MLg2908 cells (FIG. 7D) treated with TGF-β. FIGS. 7E and 7F are graphs relating to the YY1 promoter activity in YY1-Luc-transfected WI-38 cells (FIG. 7E) and YY1-Luc-transfected MLg2908 cells (FIG. 7F) treated with PBS or TGF-β for 24 hours. The full-length YY1 promoter-luciferase reporter (YY1-LUC) was transfected into the cells by electroporation. Relative light units (RLU) were measured with a luminometer. Fold changes result from the RLU of stimulated cells divided by the RLU of non-stimulated cells. The data are presented with standard errors derived from at least three independent experiments performed in triplicate. *p<0.05 and **p<0.01 by the Student's t-test.
FIGS. 9A and 9B are immunoblots of human WI-38 cells (FIG. 9A) and mouse MLg2908 cells (FIG. 9B) treated with TNF-α. After serum starvation for 24 hours, cells were treated with 10 ng/ml of TNF-α for the indicated times in serum-free DMEM. Extracts from whole cells were subjected to immunoblot analysis with anti-YY1 or anti-β-actin antibody. FIGS. 9C and 9D are graphs showing the relative fold induction of YY-1 mRNA expression, detected by quantitative PCR, in WI-38 cells (FIG. 9C) and MLg2908 cells (FIG. 9D) treated with TGF-β. FIGS. 9E and 9F are graphs relating to the YY1 promoter activity in YY1-Luc-transfected WI-38 cells (FIG. 9E) and YY1-Luc-transfected MLg2908 cells (FIG. 9F) treated with TNF-α for 8 hours. The full-length YY1 promoter-luciferase reporter (YY1-LUC) was transfected into the cells by electroporation. Relative light units (RLU) were measured with a luminometer. Fold changes result from the RLU of stimulated cells divided by the RLU of non-stimulated cells. […]
Total RNA from lung tissue and lung fibroblasts was extracted using TRIzol® reagent (Invitrogen). […] Quantitative PCR was performed using an iQ5 Biorad device. Data were analyzed by the 2^−Δ(Δ/CT^) method and normalized to the expression of the GAPDH housekeeping gene.
(§4) Cells or lung tissues were solubilized in lysis buffer (50 mM Tris/HCl (pH 8.0), 150 mM NaCl, 0.1% SDS, 0.5% sodium deoxycholate, 0.02% Na3N, 1% Nonidet P40, 1 mM PMSF, and 2 μg/ml aprotinin). Protein concentrations were determined by a BCA assay. […]

[4] = tested on: YY1 expression; test: YY1 expression in stimulated WI-38 lung fibroblasts (immunoblot, quantitative PCR); format: cell-based, human; settings: WI-38 cells; for YY1 transcript levels: quantitative PCR
Experimental: as §3
FIGS. 9A and 9B are immunoblots of human WI-38 cells (FIG. 9A) and mouse MLg2908 cells (FIG. 9B) treated with TNF-α. After serum starvation for 24 hours, cells were treated with 10 ng/ml of TNF-α for the indicated times in serum-free DMEM. Extracts from whole cells were subjected to immunoblot analysis with anti-YY1 or anti-β-actin antibody. FIGS. 9C and 9D are graphs showing the relative fold induction of YY-1 mRNA expression, detected by quantitative PCR, in WI-38 cells (FIG. 9C) and MLg2908 cells (FIG. 9D) treated with TGF-β. FIGS. 9E and 9F are graphs relating to the YY1 promoter activity in YY1-Luc-transfected WI-38 cells (FIG. 9E) and YY1-Luc-transfected MLg2908 cells (FIG. 9F) treated with TNF-α for 8 hours. The full-length YY1 promoter-luciferase reporter (YY1-LUC) was transfected into the cells by electroporation. Relative light units (RLU) were measured with a luminometer. Fold changes result from the RLU of stimulated cells divided by the RLU of non-stimulated cells. The data are presented with standard errors derived from at least three independent experiments performed in triplicate. *p<0.05, **p<0.01, and ***p<0.001 by the Student's t-test.
After serum starvation for 24 hours, cells were treated with 40 μg/ml of silica for the indicated time periods in serum-free DMEM. Extracts from WI-38 (FIG. 10A) or MLg2908 (FIG. 10B) cells were immunoblotted with anti-YY1 or anti-β-actin antibodies.
FIG. 18 is an immunoblot showing YYI in WI-38 cells that were unstimulated (“Resting”) or treated with IL-1β ([…]). Immunoblots were performed on Day 1 and Day 2 using anti-YY1 and anti-GAPDH antibodies.
Total RNA from lung tissue and lung fibroblasts was extracted using TRIzol® reagent (Invitrogen). Then, 0.5-1 μg of total RNA was reverse-transcribed using oligo dT as a primer. Quantitative PCR was performed using an iQ5 Biorad device. Data were analyzed by the 2^−Δ(Δ/CT^) method and normalized to the expression of the GAPDH housekeeping gene.
as §4, with “assay. Protein samples (20 μg) were separated in 8-16% SDS/PAGE gels and transferred onto a nitrocellulose membrane.” for “assay.”

[5] = tested on: YY1 expression; test: YY1 western blot in IC-21 alveolar macrophages; format: cell-based; settings: TNF-α 10 ng/ml or silica 20 μg/ml, two days
Experimental: FIG. 11 is a western blot of unstimulated (“resting”) IC-21 alveolar macrophages or IC-21 cells stimulated with TNF-α (10 ng/ml) or silica (20 μg/ml). After two days, the cells were harvested and YY1 expression was determined using anti-YY1 and anti-GAPDH antibodies.
In addition to the indirect effects of lung inflammation, crystalline silica can activate cells directly through distinct molecular pathways (Hornung et al., “Silica Crystals and Aluminum Salts Activate the NALP3 Inflammasome Through Phagosomal Destabilization,” Nat. Immunol. 9(8):847-56 (2008); Dostert et al., “Innate Immune Activation Through Nalp3 Inflammasome Sensing of Asbestos and Silica,” Science 320(5876):674-77 (2008), each of which is hereby incorporated by reference in its entirety). Therefore, whether silica particles directly regulate YY1 expression in fibroblasts was tested by incubating cells for up to 8 hours in vitro with a fixed concentration of silica.

[6] = tested on: human tumor cells; settings: cited from earlier work
[7] = tested on: lung fibroblasts; settings: cited from earlier work
[8] = tested on: B cells; settings: cited from earlier work
[9] = tested on: YY1 expression; test: YY1 immunoblot in TGF-β-stimulated WI-38 cells pre-treated with NF-κB inhibitor; format: cell-based, human; settings: WI-38 cells pre-treated with 5 μM for one hour, then 10 ng/ml TGF-β in serum-free DMEM
Experimental: FIG. 12A is a graph of the relative fold induction of YY1 mRNA expression in WI-38 cells transfected with a wild-type YY1 promoter construct (“YY1”). FIG. 12B is a graph of the relative fold induction of YY1 mRNA expression in WI-38 cells transfected with a mutant YY1 promoter contruct that has a disrupted NF-κB binding site (“mutant YY1”). In both cases, the cells were also transiently co-transfected with a vector control (“pSG5”) or 2.5 μg of NF-κB (“p65”) plasmid by electroporation, and then treated with PBS or 10 ng/ml of TGF-β for 24 hours. Data are presented with standard errors derived from at least three independent experiments performed in triplicate. ***P<0.001 (untreated pSG5 vs. untreated p65; TGF-β-treated pSG5 vs. TGF-β-treated p65). FIG. 12C is an immunoblot of WI-38 cells pre-treated with 5 μM of Bay 11-7085 (an NF-κB inhibitor) for one hour and then treated with 10 ng/ml of TGF-β for the indicated times in serum-free DMEM. Extracts from whole cells were immunoblotted with anti-YY1 or anti-β-actin antibody.
as §4, with “assay. Protein samples (20 μg) were separated in 8-16% SDS/PAGE gels and transferred onto a nitrocellulose membrane.” for “assay.”

[10] = tested on: YY1 expression; test: YY1 immunoblot in MRC5 human adult fibroblasts; format: cell-based; settings: MRC5 cells, 10 ng/ml for 8 hours
Experimental: (§5) FIG. 8A is an immunoblot of whole cell extracts from MRC5 cells treated with TGF-β for 8 hours. FIG. 8B is a graph of the relative light units of YY1-Lluc-transfected MRC5 cells treated with phosphate-buffered saline (“0”) or TGF-β (“10”) for 24 hours. The data are presented with standard errors derived from at least three independent experiments performed in triplicate. *p<0.05 by the Student's t-test.
(§6) After serum starvation for 24 hours, MRC5 cells were treated with 10 ng/ml of TGF-β for 8 hours or 24 hours in serum-free DMEM. Extracts from whole cells treated with TGF-β for 8 hours were subjected to immunoblot analysis with anti-YY1 or anti-β-actin antibody. […] MRC5 cells transfected with the full-length YY1 promoter-luciferase reporter (YY1-LUC) by electroporation were treated with PBS or TGFβ for 24 hours, and the relative light units (RLU) were measured with a luminometer.

[11] = tested on: YY1 promoter; test: YY1 promoter-luciferase reporter (YY1-LUC) in MRC5 cells; format: cell-based, human; settings: YY1-LUC-transfected MRC5 cells, 24 hours
Experimental: as §5, §6

[12] = serum-free DMEM, 10 ng/ml cytokine or 40 μg/ml silica, immunoblot

Row | Compound | YY1 promoter activity [1] | YY1 promoter activity [2] | YY1 transcript levels [3] | YY1 expression [3] | YY1 transcript levels [4] | YY1 expression [4, 12] | further results
1 | TNF-α | upregulated | upregulated | upregulated | increased | upregulated | increased | YY1 expression [5]: neither silica nor TNF-α affected; also recorded: slightly decreased
2 | [N]=O [Nitric oxide] | – | – | – | – | – | – | YY1 expression [6]: inhibit; YY1 expression [7]: inhibit
3 | Rituximab: anti-CD20 antibody used for treating B cell non-Hodgkin's lymphoma | – | – | – | – | – | – | NF-κB expression [8]: diminished; YY1 expression [8]: diminished
4 | CC(C)(C)c1ccc(S(=O)(=O)/C=C/C#N)cc1 [Bay11-7085] | – | – | – | – | – | – | YY1 expression [9]: abolished
5 | IL-1β: cytokine used to treat WI-38 cells | – | – | – | – | – | – | YY1 expression ([4]; Day 1 and Day 2, immunoblot): upregulated
6 | TGF-β: profibrotic cytokine used to stimulate lung fibroblasts | significantly increased | significantly increased | upregulated | upregulated | upregulated | upregulated | YY1 expression [10]: up-regulated; YY1-LUC activity [11]: up-regulated
